Experimental findings from patent US12227500B2, “Substituted pyrrolo[2,3-b]pyridines for suppressing toxic endoplasmic reticulum stress” (THE TRUSTEES OF COLUMBIA UNIVERSITY IN THE CITY OF NEW YORK, priority 2018, dated 2025) are described below.

Assay in all cases: Radiolabeled ATP kinase assay, panel of 60 kinases (Table S5)
Assay type in all cases: biochemical

For test [1], the target named is T1, panel of 60 human kinases (Homo sapiens, UniProt Q13164).
T1 construct: purchased Reaction Biology Corp
T1 sequence (Q13164 whole entry): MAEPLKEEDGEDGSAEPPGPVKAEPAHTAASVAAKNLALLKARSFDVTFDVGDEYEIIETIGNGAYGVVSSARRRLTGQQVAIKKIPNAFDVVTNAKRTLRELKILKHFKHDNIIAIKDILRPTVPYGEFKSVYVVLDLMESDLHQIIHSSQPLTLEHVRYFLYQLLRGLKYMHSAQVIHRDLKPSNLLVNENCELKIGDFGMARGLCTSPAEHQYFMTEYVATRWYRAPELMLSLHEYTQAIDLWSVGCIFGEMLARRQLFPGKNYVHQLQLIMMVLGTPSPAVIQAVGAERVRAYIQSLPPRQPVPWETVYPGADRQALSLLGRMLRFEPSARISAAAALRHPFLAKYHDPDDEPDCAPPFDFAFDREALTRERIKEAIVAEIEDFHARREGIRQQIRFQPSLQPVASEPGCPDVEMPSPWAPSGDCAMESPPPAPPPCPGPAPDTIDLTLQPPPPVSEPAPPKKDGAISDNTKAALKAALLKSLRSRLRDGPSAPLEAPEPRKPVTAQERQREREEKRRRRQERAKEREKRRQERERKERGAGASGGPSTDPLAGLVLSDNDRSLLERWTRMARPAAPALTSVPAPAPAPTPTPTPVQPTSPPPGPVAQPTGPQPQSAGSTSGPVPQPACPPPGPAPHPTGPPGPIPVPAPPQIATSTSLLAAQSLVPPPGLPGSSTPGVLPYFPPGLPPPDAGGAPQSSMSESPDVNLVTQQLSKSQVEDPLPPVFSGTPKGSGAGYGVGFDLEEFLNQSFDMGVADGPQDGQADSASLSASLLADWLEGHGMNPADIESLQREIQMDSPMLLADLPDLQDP
Conditions: 0.1 μM, 10 μM ATP, read-out: % Enzyme Activity (relative to DSMO controls). Summed up: (§1)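 Compounds at two concentrations, 0.1 μM and 0.5 μM, were screened for inhibition of 60 kinases in cell-free assays read out by radiolabeled ATP.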

For test [2], the target named is T2, panel of 60 human kinases (Homo sapiens, UniProt Q7L7X3).
T2 construct: purchased Reaction Biology Corp
T2 sequence (Q7L7X3 1-1001): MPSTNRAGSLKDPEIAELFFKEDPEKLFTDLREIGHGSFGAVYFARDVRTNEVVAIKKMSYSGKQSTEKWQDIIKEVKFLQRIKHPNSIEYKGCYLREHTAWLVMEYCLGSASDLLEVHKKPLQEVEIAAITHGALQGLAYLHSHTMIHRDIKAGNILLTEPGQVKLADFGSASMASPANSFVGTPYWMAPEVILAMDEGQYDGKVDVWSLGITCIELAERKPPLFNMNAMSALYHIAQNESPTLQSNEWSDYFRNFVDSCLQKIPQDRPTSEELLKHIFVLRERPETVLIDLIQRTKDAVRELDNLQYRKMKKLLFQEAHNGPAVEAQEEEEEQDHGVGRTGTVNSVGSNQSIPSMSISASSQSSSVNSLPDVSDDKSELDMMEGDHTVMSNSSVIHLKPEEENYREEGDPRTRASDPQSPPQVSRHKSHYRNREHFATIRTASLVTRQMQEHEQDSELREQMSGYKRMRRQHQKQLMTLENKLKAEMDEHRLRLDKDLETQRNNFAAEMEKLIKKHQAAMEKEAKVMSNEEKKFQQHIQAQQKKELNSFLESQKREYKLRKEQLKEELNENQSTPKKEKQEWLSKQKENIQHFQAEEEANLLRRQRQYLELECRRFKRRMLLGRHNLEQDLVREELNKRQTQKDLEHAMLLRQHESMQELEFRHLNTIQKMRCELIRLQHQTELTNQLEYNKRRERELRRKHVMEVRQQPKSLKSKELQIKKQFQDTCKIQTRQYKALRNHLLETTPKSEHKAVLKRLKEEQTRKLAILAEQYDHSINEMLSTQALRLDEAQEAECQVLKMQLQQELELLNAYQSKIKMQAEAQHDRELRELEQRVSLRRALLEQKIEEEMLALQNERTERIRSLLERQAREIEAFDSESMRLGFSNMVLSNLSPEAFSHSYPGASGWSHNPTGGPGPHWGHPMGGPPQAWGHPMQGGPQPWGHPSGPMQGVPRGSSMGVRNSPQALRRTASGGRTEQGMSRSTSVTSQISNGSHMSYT
Conditions: TAOK1; 0.1 μM; 10 μM ATP; read-out: % Enzyme Activity (relative to DSMO controls). Summed up:
as §1

In test [3] the target is T3, panel of 60 human kinases (Homo sapiens, UniProt Q92918).
T3 construct: purchased Reaction Biology Corp
T3 sequence (Q92918 whole entry): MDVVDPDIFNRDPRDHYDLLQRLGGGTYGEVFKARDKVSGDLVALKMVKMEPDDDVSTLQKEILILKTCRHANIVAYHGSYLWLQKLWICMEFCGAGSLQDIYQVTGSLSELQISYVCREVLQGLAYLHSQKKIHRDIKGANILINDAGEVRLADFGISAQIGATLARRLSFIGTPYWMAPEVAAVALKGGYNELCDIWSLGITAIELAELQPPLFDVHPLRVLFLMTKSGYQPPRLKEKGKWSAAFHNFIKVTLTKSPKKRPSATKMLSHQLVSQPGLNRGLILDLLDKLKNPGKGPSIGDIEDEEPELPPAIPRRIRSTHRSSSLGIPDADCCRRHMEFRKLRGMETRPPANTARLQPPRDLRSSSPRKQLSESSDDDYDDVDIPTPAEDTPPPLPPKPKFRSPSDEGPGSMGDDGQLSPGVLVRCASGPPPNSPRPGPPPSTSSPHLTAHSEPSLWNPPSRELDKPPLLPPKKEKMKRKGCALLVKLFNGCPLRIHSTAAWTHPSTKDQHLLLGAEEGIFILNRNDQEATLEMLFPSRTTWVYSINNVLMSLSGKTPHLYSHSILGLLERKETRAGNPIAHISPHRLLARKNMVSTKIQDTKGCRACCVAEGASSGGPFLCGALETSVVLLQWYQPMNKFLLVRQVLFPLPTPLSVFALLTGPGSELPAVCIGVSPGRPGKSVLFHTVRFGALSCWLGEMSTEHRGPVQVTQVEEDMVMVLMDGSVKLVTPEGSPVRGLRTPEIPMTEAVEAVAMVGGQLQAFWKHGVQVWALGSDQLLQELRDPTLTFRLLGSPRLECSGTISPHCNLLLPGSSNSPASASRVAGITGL
To be noted: HPK1/MAP4K1; 0.1 μM; 10 μM ATP; read-out: % Enzyme Activity (relative to DSMO controls). The procedure, abridged:
as §1

Test [4] concerns the target T4, panel of 60 human kinases (Homo sapiens, UniProt Q9H2K8).
T4 construct: purchased Reaction Biology Corp
T4 sequence (Q9H2K8 1-898): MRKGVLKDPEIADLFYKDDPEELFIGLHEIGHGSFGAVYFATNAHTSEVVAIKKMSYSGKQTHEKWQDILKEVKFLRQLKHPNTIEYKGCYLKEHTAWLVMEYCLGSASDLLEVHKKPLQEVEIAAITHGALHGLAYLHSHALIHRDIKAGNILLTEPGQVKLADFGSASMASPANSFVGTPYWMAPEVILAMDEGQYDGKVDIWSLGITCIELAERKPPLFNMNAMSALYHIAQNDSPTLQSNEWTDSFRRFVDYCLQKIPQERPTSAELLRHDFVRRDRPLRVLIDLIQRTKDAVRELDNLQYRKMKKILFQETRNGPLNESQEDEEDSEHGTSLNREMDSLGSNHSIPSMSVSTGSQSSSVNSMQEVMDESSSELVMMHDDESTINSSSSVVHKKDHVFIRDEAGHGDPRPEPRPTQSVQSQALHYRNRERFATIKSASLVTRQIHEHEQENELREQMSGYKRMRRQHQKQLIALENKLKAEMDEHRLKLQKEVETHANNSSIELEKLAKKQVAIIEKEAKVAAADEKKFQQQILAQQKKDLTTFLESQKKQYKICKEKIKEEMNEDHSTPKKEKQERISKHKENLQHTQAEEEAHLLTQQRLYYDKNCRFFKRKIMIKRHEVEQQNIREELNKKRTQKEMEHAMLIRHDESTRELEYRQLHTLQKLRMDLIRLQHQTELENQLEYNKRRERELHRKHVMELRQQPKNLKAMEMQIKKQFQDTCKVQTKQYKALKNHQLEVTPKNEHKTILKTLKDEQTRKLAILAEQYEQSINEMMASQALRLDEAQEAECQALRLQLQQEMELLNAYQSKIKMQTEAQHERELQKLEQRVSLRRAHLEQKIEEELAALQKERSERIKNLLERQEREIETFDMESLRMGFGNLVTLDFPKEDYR
To be noted: TAOK3/JIK; 0.1 μM; 10 μM ATP; read-out: % Enzyme Activity (relative to DSMO controls). Summed up:
as §1

Like-named read-outs stand apart in the source and are kept apart here.

As to `CN1CCN(Cc2ccc(-c3cnc4[nH]cc(-c5cccc(Cl)c5)c4c3)cc2)CC1` [Compound 7ad, 3-(3-Chlorophenyl)-5-(4-((4-methylpiperazin-1-yl)methyl)phenyl)-1H-pyrrolo[2,3-b]pyridine], the remaining activity at 0.1 µM in test [1] (ERK5/MAPK7 (CD)) came to 93.9%; in test [1] (ERK5/MAPK7), 109%; in test [2] it was 75.4%; in test [3] it was 62.5%; in test [4] it was 92%.

Turning to `CN1CCN(Cc2ccc(-c3cnc4[nH]cc(-c5ccc6c(c5)OCCO6)c4c3)cc2)CC1` [Compound 7d, 3-(2,3-Dihydrobenzo[b][1,4]dioxin-6-yl)-5-(4-((4-methylpiperazin-1-yl)methyl)phenyl)-1H-pyrrolo[2,3-b]pyridine], the remaining activity at 0.1 µM came out at 87.5% in test [1] (ERK5/MAPK7 (CD)); 96.8% in test [1] (ERK5/MAPK7); 37.3% in test [2]; 11.3% in test [3]; 67.9% in test [4].

Regarding `Cc1nn(C)c(C)c1-c1c[nH]c2ncc(-c3ccc(CN4CCN(C)CC4)cc3)cc12` [Compound 7ai, 5-(4-((4-Methylpiperazin-1-yl)methyl)phenyl)-3-(1,3,5-trimethyl-1H-pyrazol-4-yl)-1H-pyrrolo[2,3-b]pyridine], the remaining activity at 0.1 µM in test [1] (ERK5/MAPK7 (CD)) turned out to be 86%; in test [1] (ERK5/MAPK7), 101%; in test [2] it was 93.3%; in test [3], 67.8%; in test [4] it was 102%.

As to `CN1CCN(Cc2ccc(-c3cnc4[nH]cc(-c5ccc6[nH]ccc6c5)c4c3)cc2)CC1` [Compound 1, 3-(1H-Indol-5-yl)-5-(4-((4-methylpiperazin-1-yl)methyl)phenyl)-1H-pyrrolo[2,3-b]pyridine, reference compound], the remaining activity at 0.1 µM in test [1] (ERK5/MAPK7 (CD)) turned out to be 87.5%; in test [1] (ERK5/MAPK7), 109%; in test [2] it was 63.5%; in test [3] it was 24%; in test [4], 84%.

For the compound `CN1CCN(Cc2ccc(-c3cnc4[nH]cc(-c5cnn(Cc6ccccc6)c5)c4c3)cc2)CC1` [Compound 7ah, 3-(1-Benzyl-1H-pyrazol-4-yl)-5-(4-((4-methylpiperazin-1-yl)methyl)phenyl)-1H-pyrrolo[2,3-b]pyridine], the remaining activity at 0.1 µM in test [1] (ERK5/MAPK7 (CD)) amounted to 52.1%; in test [1] (ERK5/MAPK7), 105%; in test [2], 62.1%; in test [3], 17.8%; in test [4], 77.4%.

Regarding `CN1CCN(Cc2ccc(-c3cnc4[nH]cc(-c5ccncc5)c4c3)cc2)CC1` [Compound 7n, 5-(4-((4-Methylpiperazin-1-yl)methyl)phenyl)-3-(pyridin-4-yl)-1H-pyrrolo[2,3-b]pyridine], the remaining activity at 0.1 µM turned out to be 98.9% in test [1] (ERK5/MAPK7 (CD)); 90.6% in test [1] (ERK5/MAPK7); 87.4% in test [2]; 57.7% in test [3]; 94.9% in test [4].

For the compound `CN1CCN(Cc2ccc(-c3cnc4[nH]cc(-c5ccoc5)c4c3)cc2)CC1` [Compound 7w, 3-(Furan-3-yl)-5-(4-((4-methylpiperazin-1-yl)methyl)phenyl)-1H-pyrrolo[2,3-b]pyridine], the remaining activity at 0.1 µM in test [1] (ERK5/MAPK7 (CD)) came to 96.3%; in test [1] (ERK5/MAPK7), 108%; in test [2] it was 90%; in test [3], 62.4%; in test [4], 95.2%.

`COc1ccccc1-c1c[nH]c2ncc(-c3ccc(CN4CCN(C)CC4)cc3)cc12` [Compound 7at, 3-(2-Methoxyphenyl)-5-(4-((4-methylpiperazin-1-yl)methyl)phenyl)-1H-pyrrolo[2,3-b]pyridine]: the remaining activity at 0.1 µM in test [1] (ERK5/MAPK7 (CD)) worked out at 92.7%; in test [1] (ERK5/MAPK7), 108%; in test [2] it was 40.5%; in test [3], 55.6%; in test [4], 65.5%.

For the compound `CN1CCN(Cc2ccc(-c3cnc4[nH]cc(-c5ccccc5Cl)c4c3)cc2)CC1` [Compound 7as, 3-(2-Chlorophenyl)-5-(4-((4-methylpiperazin-1-yl)methyl)phenyl)-1H-pyrrolo[2,3-b]pyridine], the remaining activity at 0.1 µM in test [1] (ERK5/MAPK7 (CD)) was 51.2%; in test [1] (ERK5/MAPK7) it was 107%; in test [2], 39.3%; in test [3] it was 19.5%; in test [4], 69.8%.
